We go through 17 molecules from patent US9428507B2, “Compounds for the treatment of malaria” (The Broad Institute, Inc., priority 2013, dated 2016).

The test system of the assay is Dd2 strain of P. falciparum. Nature of the assay: Activity against the Dd2 strain of P. falciparum (SYBR Green I, 72-h incubation). The format is cell-based. To be noted: Plasmodium falciparum, DD2, 72 h, read-out: EC^50 Dd2. The procedure, abridged:
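SYBR Green I signal (ex 485, em 530 nm) measured growth, read after 24 h dark staining in saponin/Triton lysis buffer. Before that, compound-exposed Dd2 cultures (1% parasitemia, 1.0% hematocrit, 0.125% DMSO) grew 72 h at 37° C in low-oxygen gas. Background control: 20 μM mefloquine.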
Turning to `COc1ccc2c3c([nH]c2c1)[C@H](CO)N(Cc1ccncc1)CC31CN(Cc2ccc(-c3ccccn3)cc2)C1` [Compound 134, (R)-(7′-methoxy-1-(4-(pyridin-2-yl)benzyl)-2′-(pyridin-4-ylmethyl)-1′,2′,3′,9′-tetrahydrospiro [azetidine-3,4′-pyrido[3,4-b]indol]-1′-yl)methanol], the EC50 came to 2.97 µM.

Consider `COc1ccc2c3c(n(C)c2c1)[C@H](CO)N(Cc1ccc(Cl)cc1)CC31CCN(CC2CC2)CC1` [Compound 135, (R)-(2′-(4-chlorobenzyl)-1-(cyclopropylmethyl)-7′-methoxy-9′-methyl-1′,2′,3′,9′-tetrahydrospiro [piperidine-4,4′-pyrido[3,4-b]indol]-1′-yl) methanol], for which the EC50 was found to be 2.23 µM.

As to `COc1ccc2c3c([nH]c2c1)[C@H](CO)N(C(C)=O)CC31CCN(c2nc3ccccc3[nH]2)CC1` [Compound 136, (R)-1-(1-(1H-benzo[d]imidazol-2-yl)-1′-(hydroxymethyl)-7′-methoxyspiro[piperidine-4,4′-pyrido[3,4-b]indol]-2′(1′H,3′H,9′H)-yl) ethanone], the EC50 was 2.47 µM.

Regarding `COc1ccc2c3c([nH]c2c1)[C@H](CO)N(C(C)=O)CC31CCN(c2nc3ccccc3s2)CC1` [Compound 137, (R)-1-(1-(benzo[d]thiazol-2-yl)-1′-(hydroxymethyl)-7′-methoxyspiro [piperidine-4,4′-pyrido[3,4-b]indol]-2′(1′H,3′H,9′H)-yl) ethanone], the EC50 was 5.76 µM.

As to `CC(=O)Oc1ccc2c3c([nH]c2c1)[C@H](CO)N(C(C)=O)CC31CCN(C(=O)Nc2ccccc2F)CC1` [Compound 138, (R)-1-(1-(benzo[d]thiazol-2-yl)-1′-(hydroxymethyl)-7′-methoxyspiro [piperidine-4,4′-py(R)-2′-acetyl-1-((2-fluorophenyl)carbamoyl)-1′-(hydroxymethyl)-1′,2′,3′,9′-tetrahydrospiro [piperidine-4,4′-pyrido[3,4-b]indol]-7′-ylacetaterido[3,4-b]indol]-2′(1′H,3′H,9′H)-yl)ethanone], the EC50 is 4.5 µM.

Turning to `COc1cc2[nH]c3c(c2cc1OC)C1(CCN(C(=O)Nc2ccccc2F)CC1)CN(C(C)=O)[C@H]3CO` [Compound 139, (R)-2′-acetyl-N-(2-fluorophenyl)-1′-(hydroxymethyl)-6′,7′-d imethoxy-1′,2′,3′,9′-tetrahydrospiro [piperidine-4,4′-pyrido[3,4-b]indole]-1-carboxamide], the EC50 came to 5.76 µM.

For the molecule `COc1ccc2c3c([nH]c2c1)[C@H]1COCC(=O)N1CC31CCN(C(=O)Nc2ccccc2F)CC1` [Compound 140, (S)-N-(2-fluorophenyl)-10-methoxy-4-oxo-1,3,4,6,12,12b-hexahydrospiro [[1,4]oxazino[4′,3′:1 ,2]pyrido[3,4-b]indole-7,4′-piperidine]-1′-carboxamide], the EC50 came out at 2.47 µM.

As for `CC(=O)N1CC2(CCN(C(=O)Nc3ccccc3F)CC2)c2c([nH]c3cc(OC(C)C)ccc23)[C@@H]1CO` [Compound 141, (R)-2′-acetyl-N-(2-fluorophenyl)-1′-(hydroxymethyl)-7′-isopropoxy-1′,2′,3′,9′-tetrahydrospiro [piperidine-4,4′-pyrido[3,4-b]indole]-1-carboxamide], the EC50 amounted to 6.71 µM.

As for `CC(=O)N1CC2(CCN(C(=O)Nc3ccccc3F)CC2)c2c([nH]c3cc(O)ccc23)[C@@H]1CO` [Compound 142, (R)-2′-acetyl-N-(2-fluorophenyl)-7′-hydroxy-1′-(hydroxymethyl)-1′,2′,3′,9′-tetrahydrospiro [piperidine-4,4′-pyrido[3,4-b]indole]-1-carboxamide], the EC50 turned out to be 6.04 µM.

For `COc1ccc2c3c([nH]c2c1)[C@H](CO)N(Cc1ccccc1)CC31CCN(C(=O)Nc2ccccc2F)CC1` [Compound 143, (R)-2′-benzyl-N-(2-fluorophenyl)-1′-(hydroxymethyl)-7′-methoxy-1′,2′,3′,9′-tetrahydrospiro [piperidine-4,4′-pyrido[3,4-b]indole]-1-carboxamide], the EC50 worked out at 5 µM.

On to `COc1ccc2c3c([nH]c2c1)[C@H](CO)N(S(=O)(=O)c1ccc(C)cc1)CC31CCN(C(=O)Nc2ccccc2F)CC1` [Compound 144, (R)-N-(2-fluorophenyl)-1′-(hydroxymethyl)-7′-methoxy-2′-tosyl-1′,2′,3′,9′-tetrahydrospiro [piperidine-4,4′-pyrido[3,4-b]indole]-1-carboxamide], for which the EC50 came to 1.08 µM.

`COc1ccc2c3c([nH]c2c1)[C@H](CO)N(S(=O)(=O)C1CC1)CC31CCN(C(=O)Nc2ccccc2F)CC1` [Compound 145, (R)-2′-(cyclopropylsulfonyl)-N-(2-fluorophenyl)-1′-(hydroxymethyl)-7′-methoxy-1′,2′,3′,9′-tetrahydrospiro [piperidine-4,4′-pyrido[3,4-b]indole]-1-carboxamide]: the EC50 worked out at 0.113 µM.

As to `COc1ccc2c3c([nH]c2c1)[C@H](CO)N(S(=O)(=O)C(F)(F)F)CC31CCN(C(=O)Nc2ccccc2F)CC1` [Compound 146, (R)-N-(2-fluorophenyl)-1′-(hydroxymethyl)-7′-methoxy-2′-((trifluoromethyl)sulfonyl)-1′,2′,3′,9′-tetrahydrospiro [piperidine-4,4′-pyrido[3,4-b]indole]-1-carboxamide], the EC50 is 0.269 µM.

For `COc1ccc2c3c([nH]c2c1)[C@H](CO)N(S(=O)(=O)c1ccccc1)CC31CCN(C(=O)Nc2ccccc2F)CC1` [Compound 147, (R)-N-(2-fluorophenyl)-1′-(hydroxymethyl)-7′-methoxy-2′-(phenylsulfonyl)-1′,2′,3′,9′-tetrahydrospiro [piperidine-4,4′-pyrido+[,4-b]indole]-1-carboxamide], the EC50 is 0.391 µM.

Regarding `CCS(=O)(=O)N1CC2(CCN(C(=O)OC(C)(C)C)CC2)c2c([nH]c3cc(OC)ccc23)[C@@H]1CO` [Compound 148, (R)-tert-butyl 2′-(ethylsulfonyl)-1′-(hydroxymethyl)-7′-methoxy-1′,2′,3′,9′-tetrahydrospiro [piperidine-4,4′-pyrido[3,4-b]indole]-1-carboxylate], the EC50 is 8.53 µM.

On to `CCCS(=O)(=O)N1CC2(CCN(C(=O)Nc3ccccc3F)CC2)c2c([nH]c3cc(OC)ccc23)[C@@H]1CO` [Compound 149, (R)-N-(2-fluorophenyl)-1′-(hydroxymethyl)-7′-methoxy-2′-(propylsulfonyl)-1′,2′,3′,9′-tetrahydrospiro [piperidine-4,4′-pyrido[3,4-b]indole]-1-carboxamide], for which the EC50 was 0.221 µM.

For `CCS(=O)(=O)N1CC2(CCN(C(=O)Nc3ccccc3F)CC2)c2c([nH]c3cc(OC)ccc23)[C@@H]1CO` [Compound 150, (R)-2′-(ethylsulfonyl)-N-(2-fluorophenyl)-1′-(hydroxymethyl)-7′-methoxy-1′,2′,3′,9′-tetrahydrospiro [piperidine-4,4′-pyrido[3,4-b]indole]-1-carboxamide], the EC50 lay in the range of 0.014 to 0.058 µM.
